US20240384268A1, “Oligonucleotides” (Hudson Institute of Medical Research, priority 2021, published 2024)
In the oligonucleotide strings, read from the 5' end, every base follows the letter of its sugar. An asterisk marks phosphorothioate; unmarked linkages are phosphodiester. Other units and linkages are bracketed, terminal groups are in braces. A string of capitals states the bases alone. d = 2'-deoxy (DNA); m = 2'-O-methyl

Target: T1, human TLR7 (Homo sapiens, UniProt Q9NYK1)
T1 construct: HA; host or cells: 293XL-hTLR7-HA (HEK293)
T1 sequence (Q9NYK1 27-1049): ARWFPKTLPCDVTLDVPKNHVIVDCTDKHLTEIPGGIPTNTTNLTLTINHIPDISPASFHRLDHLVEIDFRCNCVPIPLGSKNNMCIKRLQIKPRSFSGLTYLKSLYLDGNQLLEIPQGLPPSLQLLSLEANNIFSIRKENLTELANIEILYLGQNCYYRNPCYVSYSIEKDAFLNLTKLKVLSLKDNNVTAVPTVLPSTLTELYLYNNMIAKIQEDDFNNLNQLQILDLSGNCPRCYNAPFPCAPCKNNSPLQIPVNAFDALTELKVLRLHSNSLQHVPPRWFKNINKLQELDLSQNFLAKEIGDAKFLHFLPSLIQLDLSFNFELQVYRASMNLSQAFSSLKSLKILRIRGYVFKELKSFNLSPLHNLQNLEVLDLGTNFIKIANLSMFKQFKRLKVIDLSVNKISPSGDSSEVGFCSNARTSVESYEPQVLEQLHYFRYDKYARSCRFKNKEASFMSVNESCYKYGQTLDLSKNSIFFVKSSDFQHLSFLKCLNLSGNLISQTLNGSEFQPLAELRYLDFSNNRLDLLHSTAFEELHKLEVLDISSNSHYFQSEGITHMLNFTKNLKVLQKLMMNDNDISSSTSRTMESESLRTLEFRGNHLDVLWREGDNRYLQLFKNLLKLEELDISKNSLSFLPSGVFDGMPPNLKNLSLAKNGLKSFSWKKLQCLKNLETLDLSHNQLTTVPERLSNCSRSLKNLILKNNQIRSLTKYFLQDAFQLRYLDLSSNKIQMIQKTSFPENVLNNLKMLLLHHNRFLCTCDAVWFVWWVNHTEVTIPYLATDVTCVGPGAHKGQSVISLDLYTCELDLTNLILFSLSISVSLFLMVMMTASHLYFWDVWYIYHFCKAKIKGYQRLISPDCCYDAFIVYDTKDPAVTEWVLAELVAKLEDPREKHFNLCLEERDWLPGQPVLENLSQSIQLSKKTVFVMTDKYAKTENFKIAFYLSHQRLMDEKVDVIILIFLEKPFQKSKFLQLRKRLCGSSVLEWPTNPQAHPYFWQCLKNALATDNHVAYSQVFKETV
Experiment: HEK-TLR7 NF-κB-luciferase reporter, R848 stimulation
Type: cell-based
Settings: for TLR7 100 nM: MOE-modified ASO at 100 nM; for TLR7 100 nM / TLR7 500 nM: averaged NF-κB-Luciferase relative to R848 condition; for TLR7 500 nM: MOE-modified ASO at 500 nM; for TLR7-100 nM: averaged NF-κB-Luciferase relative to R848: HEK-TLR7, 100 nM ASO, percentage of R848 without ASO (Alharbi et al., 2020)

| Substance | TLR7 100 nM | TLR7 500 nM | TLR7-100 nM: averaged NF-κB-Luciferase relative to R848 [%] |
| --- | --- | --- | --- |
| ATGCCATCCACTTGATAGGC (antisense; 2'-MOE modified, pattern not given here) [EGFR-2874 MOE] | 0.668 | 0.390 |  |
| mU*mU*mA*mA*mA*T*A*A*T*C*T*A*G*T*T*mU*mG*mA*mA*mG (UUAAATAATCTAGTTUGAAG; sugars from the 5' end m5 d10 m5, all phosphorothioate, methylation of C not given here) [[CDKN2B-AS1]132] |  |  | 25.66 |
| mG*mA*mU*mU*mA*A*A*A*C*A*G*A*T*T*A*mA*mU*mA*mC*mA (mG*mA*mU*mU*mA*dA*dA*dA*dC*dA*dG*dA*dT*dT*dA*mA*mU*mA*mC*mA) [[CDKN2B-AS1]1773] |  |  | 21.92 |
| mA*mA*mG*mG*mU*G*G*C*C*A*C*A*G*G*C*mA*mA*mC*mG*mU (mA*mA*mG*mG*mU*dG*dG*dC*dC*dA*dC*dA*dG*dG*dC*mA*mA*mC*mG*mU; antisense) [[CDKN2B-AS1]2198] |  |  | 57.85 |
| GGGTATCGAAAGAGTCTGGA (antisense; 2'-MOE modified, pattern not given here) [EGFR-3908 MOE] | 0.350 | 0.079 |  |
| TGGCAGGCTCAGTGATGTCT (antisense; 2'-MOE modified, pattern not given here) [CTNN2B-1642 MOE] | 0.415 | 0.167 |  |
| mA*mA*mA*mA*mG*A*T*T*A*T*C*T*T*C*T*mU*mU*mU*mA*mA (AAAAGATTATCTTCTUUUAA; sugars from the 5' end m5 d10 m5, all phosphorothioate, methylation of C not given here) [[CDKN2B-AS1]2133] |  |  | 47.41 |
| TTTGCACACTTCGTACCCAA (antisense; 2'-MOE modified, pattern not given here) [CAMSAP1-4916 MOE] | 0.296 | 0.118 |  |
| mU*mG*mA*mC*mA*T*T*T*C*G*T*G*G*C*T*mC*mC*mU*mA*mC (mU*mG*mA*mC*mA*dT*dT*dT*dC*dG*dT*dG*dG*dC*dT*mC*mC*mU*mA*mC; antisense) [[LINC-PINT]523 KL] |  |  | 33.56 |
| mA*mA*mA*mG*mA*T*T*A*T*C*T*T*C*T*T*mU*mU*mA*mA*mU (mA*mA*mA*mG*mA*dT*dT*dA*dT*dC*dT*dT*dC*dT*dT*mU*mU*mA*mA*mU) [[CDKN2B-AS1]2132] |  |  | 49.28 |
| mC*mC*mC*mU*mA*A*T*G*C*T*T*T*C*C*T*mC*mU*mC*mC*mA (mC*mC*mC*mU*mA*dA*dT*dG*dC*dT*dT*dT*dC*dC*dT*mC*mU*mC*mC*mA; antisense) [[LINC-PINT1877 KL] |  |  | 58.39 |
| mU*mU*mA*mG*mC*T*C*C*T*T*G*C*C*T*C*mG*mU*mU*mC*mC (mU*mU*mA*mG*mC*dT*dC*dC*dT*dT*dG*dC*dC*dT*dC*mG*mU*mU*mC*mC; antisense) [[LINC-PINT] 1222] |  |  | 31.67 |
| TCCGGCCTCGGAAGCTCTCT (antisense; 2'-MOE modified, pattern not given here) [MB21D1-168 MOE] | 0.440 | 0.166 |  |
| mG*mG*mA*mU*mU*A*A*A*A*C*A*G*A*T*T*mA*mA*mU*mA*mC (GGAUUAAAACAGATTAAUAC; sugars from the 5' end m5 d10 m5, all phosphorothioate, methylation of C not given here) [[CDKN2B-AS1]1774] |  |  | 27.16 |
| mC*mA*mU*mC*mC*C*T*T*C*T*G*C*T*G*C*mC*mA*mA*mG*mC (mC*mA*mU*mC*mC*dC*dT*dT*dC*dT*dG*dC*dT*dG*dC*mC*mA*mA*mG*mC; antisense) [[LINC-PINT]98] |  |  | 54.34 |
| CGGCATCCACCACGTCGTCC (antisense; 2'-MOE modified, pattern not given here) [EGFR-3267 MOE] | 0.485 | 0.202 |  |
| mU*mG*mG*mC*mG*T*A*G*T*T*T*C*T*C*T*mU*mC*mC*mU*mC (mU*mG*mG*mC*mG*dT*dA*dG*dT*dT*dT*dC*dT*dC*dT*mU*mC*mC*mU*mC; antisense) [[LINC-PINT]937.1] |  |  | 32.81 |
| mC*mC*mU*mU*mC*T*C*T*C*T*G*GT*C*C*mC*mA*mU*mC*mC (CCUUCTCTCTGGTCCCAUCC; antisense; chemistry not fully specified) [[LINC-PINT]113] |  |  | 60.90 |
| mG*mU*mC*mU*mC*C*T*C*C*A*C*A*C*C*C*mU*mU*mC*mU*mC (mG*mU*mC*mU*mC*dC*dT*dC*dC*dA*dC*dA*dC*dC*dC*mU*mU*mC*mU*mC; antisense) [[LINC-PINT]126] |  |  | 25.01 |
| mC*mU*mU*mU*mA*T*A*T*T*A*C*A*A*A*G*mC*mU*mA*mC*mU (mC*mU*mU*mU*mA*dT*dA*dT*dT*dA*dC*dA*dA*dA*dG*mC*mU*mA*mC*mU; antisense) [[LINC-PINT]2755] |  |  | 54.83 |
| mA*mA*mA*mU*mG*T*C*C*T*G*G*C*C*C*T*mC*mA*mC*mU*mG (mA*mA*mA*mU*mG*dT*dC*dC*dT*dG*dG*dC*dC*dC*dT*mC*mA*mC*mU*mG) [[LINC-PINT]148.1] |  |  | 46.45 |
| mA*mU*mG*mA*mC*A*T*T*T*C*G*T*G*G*C*mU*mC*mC*mU*mA (mA*mU*mG*mA*mC*dA*dT*dT*dT*dC*dG*dT*dG*dG*dC*mU*mC*mC*mU*mA) [[LINC-PINT]524.1] |  |  | 32.53 |
